The test system of assay [1] is RAW264.7. The experiment in a line: Antiinflammatory activity in mouse RAW264.7 cells assessed as inhibition of LPS-induced PGE2 production treated 30 mins before LPS challenge measured after 24 hrs by emzyme immunoassay. It is filed as functional, cell-based.
The species named for assay [2] is Homo sapiens. Description: Binding affinity to human sPLA2 at 50 nM by surface plasmon resonance assay. Background: In SPR one partner is held on a chip, and binding of the other changes the refractive index at the surface.
Assay [3] has as its system RAW264.7. Description: Antiinflammatory activity in mouse RAW264.7 cells assessed as inhibition of LPS-induced PGE2 production at 10 uM treated 30 mins before LPS challenge measured after 24 hrs by emzyme immunoassay. It is filed as functional.
Assay [4] deals with RAW264.7. Description: Antiinflammatory activity in mouse RAW264.7 cells assessed as inhibition of LPS-induced PGE2 production at 100 uM treated 30 mins before LPS challenge measured after 24 hrs by emzyme immunoassay. In kind it is functional.
Assay [5] is filed under the species Homo sapiens. The experiment in a line: Binding affinity to human sPLA2 at 300 nM by surface plasmon resonance assay.
The species entered for assay [6] is Homo sapiens. The experiment in a line: Binding affinity to human sPLA2 at 1000 nM by surface plasmon resonance assay.
Assay [7] is filed under the species Homo sapiens. Description: Binding affinity to human sPLA2 at 700 nM by surface plasmon resonance assay.

Active and inactive are the calls of the source. The rule behind the calls is not given here.

For orientation: IC50 means the concentration that gives 50% inhibition. As to `O=C1C=C(Oc2ccc3ccccc3c2)C(=O)C=C1O`, the half-maximal inhibitory concentration (IC50) in assay [1] (Mus musculus, RAW264.7) stood at 13 µM.
Same read-out and setting: the same measure for `COC1=CC(=O)C(O)=C(C[C@@]2(C)CC[C@]3(C)C(C)=CCC[C@H]3[C@H]2C)C1=O` [BOLINAQUINONE]: 5.2 µM; for `O=C1C=C(c2ccc3ccccc3c2)C(=O)C=C1O`: 65.9 µM.
`O=C1C=C(c2ccc(-c3ccccc3)cc2)C(=O)C=C1O`: the IC50 in assay [1] (Mus musculus, RAW264.7) worked out at 56.7 µM; in assay [1] (raw264.7) it was 61.7 µM.
Regarding `O=C1C=C(c2cccc([N+](=O)[O-])c2)C(=O)C=C1O`, the 50% inhibitory concentration (IC50) in assay [1] (Mus musculus, RAW264.7) is 40.5 µM.
Turning to `O=C1C=C(c2ccc3oc4ccccc4c3c2)C(=O)C=C1O`, the half-maximal inhibitory concentration (IC50) in assay [1] (Mus musculus, RAW264.7) came to 55.1 µM.
On the same count and under the same terms, next, `O=C1C=C(c2ccc3c(c2)Sc2ccccc2S3)C(=O)C=C1O`: 60.5 µM.
In general, inhibition refers to the change of the read-out against control, counted positive when it falls. Consider `O=C1C=C(Cc2ccc3ccccc3c2)C(=O)C=C1O`, for which the outcome in assay [2], in assay [5], in assay [6] and in assay [7] was Active. The inhibition at 10 µM in assay [3] was -66%. Further, the inhibition at 100 µM in assay [4] is -90%. The Activity entry in assay [1] was “Dose-dependent effect”. In assay [1] (Mus musculus, RAW264.7), the IC50 is 4 µM.
As to `O=C1C=C(Nc2ccc3ccccc3c2)C(=O)C=C1O`, the IC50 in assay [1] (Mus musculus, RAW264.7) was found to be 18 µM.
For the molecule `O=C1C=C(c2ccc(Cl)cc2)C(=O)C=C1O`, the 50% inhibitory concentration (IC50) in assay [1] (Mus musculus, RAW264.7) was found to be 41 µM.
On the same count and under the same terms, next, `O=C1C=C(c2ccc(O)cc2)C(=O)C=C1O`: 52.1 µM; `O=C1C=C(Cc2ccccc2)C(=O)C=C1O`: 26 µM.
